Measurements from patent publication US20100197724A1, “6.5 -PYRROLOPIPERIDINE TACHYKININ RECEPTOR ANTAGONISTS” (priority 2007, published 2010).

Target: T1, human neurokinin-1 receptor (NK1R) (Homo sapiens, UniProt P25103)
T1 construct: expressed in transfected cells
Test: 125I-substance P binding assay of human NK1R expressed in COS or CHO cells
Conditions: competition with 125I-substance P
Procedure: Receptor Expression in COS: To express the cloned human neurokinin-1 receptor (NK1R) transiently in COS, the cDNA for the human NK1R was cloned into the expression vector pCDM9 which was derived from pCDM8 (INVITROGEN) by inserting the ampicillin resistance gene (nucleotide 1973 to 2964 from BLUESCRIPT SK+) into the Sac II site. Transfection of 20 ug of the plasmid DNA into 10 million COS cells was achieved by electroporation in 800 ul of transfection buffer (135 mM NaCl, 1.2 mM CaCl2, 1.2 mM MgCl2, 2.4 mM K2HPO4, 0.6 mM KH2PO4, 10 mM glucose, 10 mM HEPES pH 7.4) at 260 V and 950 uF using the IBI GENEZAPPER (IBI, New Haven, Conn.). The cells were incubated in 10% fetal calf serum, 2 mM glutamine, 100 U/ml penicillin-streptomycin, and 90% DMEM media (GIBCO, Grand Island, N.Y.) in 5% CO2 at 37° C. for three days before the binding assay.
Stable Expression in CHO: To establish a stable cell line expressing the cloned human NK1R, the cDNA was subcloned into the vector pRcCMV (INVITROGEN). Transfection of 20 ug of the plasmid DNA into CHO cells was achieved by electroporation in 800 ul of transfection buffer supplemented with 0.625 mg/ml Herring sperm DNA at 300 V and 950 uF using the IBI GENEZAPPER (IBI). The transfected cells were incubated in CHO media [10% fetal calf serum, 100 U/ml penicillin-streptomycin, 2 mM glutamine, 1/500 hypoxanthine-thymidine (ATCC), 90% IMDM media (JRH BIOSCIENCES, Lenexa, Kans.), 0.7 mg/ml G418 (GIBCO)] in 5% CO2 at 37° C. until colonies were visible. Each colony was separated and propagated. The cell clone with the highest number of human NK1R was selected for subsequent applications such as drug screening.
Assay Protocol using COS or CHO: The binding assay of human NK1R expressed in either COS or CHO cells is based on the use of ^125I-substance P (^125I-SP, from DU PONT, Boston, Mass.) as a radioactively labeled ligand which competes with unlabeled substance P or any other ligand for binding to the human NK1R. Monolayer cell cultures of COS or CHO were dissociated by the non-enzymatic solution (SPECIALTY MEDIA, Lavallette, N.J.) and resuspended in appropriate volume of the binding buffer (50 mM Tris pH 7.5, 5 mM MnCl2, 150 mM NaCl, 0.04 mg/ml bacitracin, 0.004 mg/ml leupeptin, 0.2 mg/ml BSA, 0.01 mM phosphoramidon) such that 200 ul of the cell suspension would give rise to about 10,000 cpm of specific ^125I-SP binding (approximately 50,000 to 200,000 cells). In the binding assay, 200 ul of cells were added to a tube containing 20 ul of 1.5 to 2.5 nM of ^125I-SP and 20 ul of unlabeled substance P or any other test compound. The tubes were incubated at 4° C. or at room temperature for 1 hour with gentle shaking. The bound radioactivity was separated from unbound radioactivity by GF/C filter (BRANDEL, Gaithersburg, Md.) which was pre-wetted with 0.1% polyethylenimine. The filter was washed with 3 ml of wash buffer (50 mM Tris pH 7.5, 5 mM MnCl2, 150 mM NaCl) three times and its radioactivity was determined by gamma counter. The activation of phospholipase C by NK1R may also be measured in CHO cells expressing the human NK1R by determining the accumulation of inositol monophosphate which is a degradation product of IP3. CHO cells are seeded in 12-well plate at 250,000 cells per well. After incubating in CHO media for 4 days, cells are loaded with 0.025 uCi/ml of ^3H-myoinositol by overnight incubation. The extracellular radioactivity is removed by washing with phosphate buffered saline. LiCl is added to the well at final concentration of 0.1 mM with or without the test compound, and incubation is continued at 37° C. for […]. Substance P is added to the well at final concentration of 0.3 nM to activate the human NK1R. After 30 min of incubation at 37° C., the media is removed and 0.1 N HCl is added. Each well is sonicated at 4° C. and extracted with CHCl3/methanol (1:1). The aqueous phase is applied to a 1 ml Dowex AG 1X8 ion exchange column. […]

T1 sequence (P25103 whole entry): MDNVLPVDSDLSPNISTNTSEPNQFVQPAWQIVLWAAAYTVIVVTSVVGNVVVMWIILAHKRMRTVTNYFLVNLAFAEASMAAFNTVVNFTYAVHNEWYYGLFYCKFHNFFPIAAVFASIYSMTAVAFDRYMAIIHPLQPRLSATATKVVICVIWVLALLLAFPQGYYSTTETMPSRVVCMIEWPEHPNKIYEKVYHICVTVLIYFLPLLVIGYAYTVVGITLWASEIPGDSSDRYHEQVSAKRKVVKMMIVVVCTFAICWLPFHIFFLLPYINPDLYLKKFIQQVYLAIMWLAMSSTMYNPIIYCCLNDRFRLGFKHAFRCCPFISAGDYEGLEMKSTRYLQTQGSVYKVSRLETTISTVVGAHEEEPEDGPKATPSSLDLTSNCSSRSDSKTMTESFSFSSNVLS

Row | IC50 | Compound
1 | 0.057 nM | Cc1cc(F)ccc1[C@H]1[C@@H]2CN(C(=O)[C@@H](C)O)C[C@H]2CCN1C(=O)N(C)[C@H](C)c1cc(C(F)(F)F)cc(C(F)(F)F)c1 [Example 31, (3aS,4R,7aS)-N-{(1R)-1-[3,5-bis(trifluoromethyl)phenyl]ethyl}-4-(4-fluoro-2-methylphenyl)-2-[(2R)-2-hydroxypropanoyl]-N-methyloctahydro-5H-pyrrolo[3,4-c]pyridine-5-carboxamide]
2 | 0.115 nM | Cc1cc(F)ccc1[C@H]1C2CN(C3=CC(=O)OC3)C[C@H]2CCN1C(=O)N(C)[C@H](C)c1cc(C(F)(F)F)cc(C(F)(F)F)c1 (stereo partly shown) [Example 29]
3 | 0.077 nM | Cc1cc(F)ccc1[C@H]1[C@@H]2CN(C3=NC(=O)CO3)C[C@H]2CCN1C(=O)N(C)[C@H](C)c1cc(C(F)(F)F)cc(C(F)(F)F)c1 [Example 28, (3aS,4R,7aS)-N-{(1R)-1-[3,5-bis(trifluoromethyl)phenyl]ethyl}-4-(4-fluoro-2-methylphenyl)-N-methyl-2-(4-oxo-4,5-dihydro-1,3-oxazol-2-yl)octahydro-5H-pyrrolo[3,4-c]pyridine-5-carboxamide]
4 | 0.052 nM | Cc1cc(F)ccc1[C@H]1[C@@H]2CN(Cc3ccccc3)C[C@H]2CCN1C(=O)N(C)[C@H](C)c1cc(C(F)(F)F)cc(C(F)(F)F)c1 [Example 25, (3aS,4R,7aS)-2-benzyl-N-{(1R)-1-[3,5-bis(trifluoromethyl)phenyl]ethyl}-4-(4-fluoro-2-methylphenyl)-N-methyloctahydro-5H-pyrrolo[3,4-c]pyridine-5-carboxamide]
5 | 0.031 nM | Cc1cc(F)ccc1[C@H]1C2CNC[C@H]2CCN1C(=O)N(C)[C@H](C)c1cc(C(F)(F)F)cc(C(F)(F)F)c1 (stereo partly drawn) [Example 26, (3aS,4R,7aS)-N-{(1R)-1-[3,5-bistrifluoromethyl)phenyl]ethyl}-4-(4-fluoro-2-methylphenyl-N-methyloctahydro-5H-pyrrolo[3,4-c]pyridine-5-carboxamide]
6 | 0.066 nM | Cc1cc(F)ccc1[C@H]1[C@@H]2CN(C(=O)C(C)(C)C)C[C@H]2CCN1C(=O)N(C)[C@H](C)c1cc(C(F)(F)F)cc(C(F)(F)F)c1 [Example 33, (3aS,4R,7aS)-N-{(1R)-1-[3,5-bis(trifluoromethyl)phenyl]ethyl}-2-(2,2-dimethylpropanoyl)-4-(4-fluoro-2-methylphenyl)-N-methyloctahydro-5H-pyrrolo[3,4-c]pyridine-5-carboxamide]

Continued, compound first:

Row | Compound | IC50
7 | Cc1ccccc1[C@H]1[C@@H]2CN(C3CCOCC3)C[C@H]2CCN1C(=O)N(C)[C@H](C)c1cc(C(F)(F)F)cc(C(F)(F)F)c1 [Example 21, (3aS,4R,7aS)-N-{(1R)-1-[3,5-bis(trifluoromethyl)phenyl]ethyl}-N-methyl-4-(2-methylphenyl)-2-(tetrahydro-2H-pyran-4-yl)octahydro-5H-pyrrolo[3,4-c]pyridine-5-carboxamide] | 0.085 nM
8 | CC(=O)N1CC2[C@H](CCN(C(=O)N(C)[C@H](C)c3cc(C(F)(F)F)cc(C(F)(F)F)c3)[C@H]2c2ccccc2C)C1 (stereo partly drawn) [Example 18, (3aS,4R,7aS)-2-acetyl-N{(1R)-1-[3,5-bis(trifluoromethyl)phenyl]ethyl}-N-methyl-4-(2-methylphenyl)octahydro-5H-pyrrolo[3,4-c]pyridine-5-carboxamide] | 0.068 nM
9 | Cc1ccccc1[C@H]1[C@@H]2CN(C(=O)C3CCN(C(N)=O)CC3)C[C@H]2CCN1C(=O)N(C)[C@H](C)c1cc(C(F)(F)F)cc(C(F)(F)F)c1 [Example 20, (3aS,4R,7aS)-2-{[1-(aminocarbonyl)piperidin-4-yl]carbonyl}-N-{(1R)-1-[3,5-bis(trifluoromethyl)phenyl]ethyl}-N-methyl-4-(2-methylphenyl)octahydro-5H-pyrrolo[3,4-c]pyridine-5-carboxamide] | 0.185 nM
10 | Cc1ccccc1[C@H]1C2CN(CC(C)(C)CO)C[C@H]2CCN1C(=O)N(C)[C@H](C)c1cc(C(F)(F)F)cc(C(F)(F)F)c1 (stereo partly shown) [Example 23] | 0.094 nM
11 | Cc1ccccc1[C@H]1C2CN(C3=NC(=O)CO3)C[C@H]2CCN1C(=O)N(C)[C@H](C)c1cc(C(F)(F)F)cc(C(F)(F)F)c1 (stereo partly shown) [Example 12] | 0.043 nM
12 | Cc1ccccc1[C@H]1[C@@H]2CN(C(=O)[C@H](C)O)C[C@H]2CCN1C(=O)N(C)[C@H](C)c1cc(C(F)(F)F)cc(C(F)(F)F)c1 [Example 17, (3aS,4R,7aS)-N-{(1R)-1-[3,5-bis(trifluoromethyl)phenyl]ethyl}-2-[(2S)-2-hydroxypropanoyl]-N-methyl-4-(2-methylphenyl)octahydro-5H-pyrrolo[3,4-c]pyridine-5-carboxamide] | 0.081 nM
13 | Cc1ccccc1[C@H]1[C@@H]2CN(Cc3ccccc3)C[C@H]2CCN1C(=O)N(C)[C@H](C)c1cc(C(F)(F)F)cc(C(F)(F)F)c1 [Example 8, (3aS,4R,7aS)-2-benzyl-N-{(1R)-1-[3,5-bis(trifluoromethyl)phenyl]ethyl}-N-methyl-4-(2-methylphenyl)octahydro-5H-pyrrolo[3,4-c]pyridine-5-carboxamide] | 1.19 nM
14 | CC(C)(C(=O)N1CC[C@@H]2CN(C3=CC(=O)CC3)C[C@H]2[C@@H]1c1ccc(F)cc1)c1cc(C(F)(F)F)cc(C(F)(F)F)c1 (racemic) [Example 4] | 0.17 nM
15 | CC(C(=O)N1CC[C@@H]2CN(C3=CC(=O)CC3)CC2[C@@H]1c1ccc(F)cc1)c1cc(C(F)(F)F)cc(C(F)(F)F)c1 (mixture of isomers) [Example 3, 3-[(3aSR,4RS,7aSR)-5-{2-[3,5-bis(trifluoromethyl)phenyl]propanoyl}-4-(4-fluorophenyl)octahydro-2H-pyrrolo[3,4-c]pyridin-2-yl]cyclopent-2-en-1-one] | 12 nM
16 | CC(c1cc(C(F)(F)F)cc(C(F)(F)F)c1)N(C)C(=O)N1CC[C@@H]2CN(C3=CC(=O)CC3)CC2[C@@H]1c1ccc(F)cc1 (stereo partly shown) [Example 6] | 0.16 nM
17 | Cc1ccccc1[C@H]1[C@@H]2CN(C(=O)C3CCC(=O)N(C)C3)C[C@H]2CCN1C(=O)N(C)[C@H](C)c1cc(C(F)(F)F)cc(C(F)(F)F)c1 (stereo partly drawn) [Example 19, (3aS,4R,7aS)-N-{(1R)-1-[3,5-bis(trifluoromethyl)phenyl]ethyl}-N-methyl-2-[(1-methyl-6-oxopiperidin-3-yl)carbonyl]-4-(2-methylphenyl)octahydro-5H-pyrrolo[3,4-c]pyridine-5-carboxamide] | 0.09 nM
18 | O=C(CN1CCOC1=O)N1C[C@H]2CCN(C(=O)Cc3cc(C(F)(F)F)cc(C(F)(F)F)c3)[C@@H](c3ccc(F)cc3)[C@@H]2C1 (racemic) [Example 5, 3-{2-[(3aSR,4RS,7aSR)-5-{[3,5-bis(trifluoromethyl)phenyl]acetyl}-4-(4-fluorophenyl)octahydro-2H-pyrrolo[3,4-c]pyridin-2-yl]-2-oxoethyl}-1,3-oxazolidin-2-one] | 3.5 nM
19 | Cc1ccccc1[C@H]1C2CN(C3=CC(=O)OC3)C[C@H]2CCN1C(=O)N(C)[C@H](C)c1cc(C(F)(F)F)cc(C(F)(F)F)c1 (stereo partly drawn) [Example 13, (3aS,4R aS)-N-{(1R)-1-[3,5-bis(trifluoromethyl)phenyl]ethyl}-N-methyl-4-(2-methylphenyl)-2-(5-oxo-2,5-dihydrofuran-3-yl)octahydro-5H-pyrrolo[3,4-c]pyridine-5-carboxamide] | 0.083 nM
